# Measured values: paper PMC9764189 (The Journal of Biological Chemistry, 2022)
# Like-named read-outs stand apart in the source and are kept apart here.
# Tests used:
# MR1 = MR1 (Homo sapiens, UniProt Q95460); test: biochemical; format: binding; details: for IC50: IC50, 10 nM JYM20, 100 nM MR1-empty, 25 °C, pH 7.5; for Binder category (ligand affinity for MR1): category by IC50
# Sequence of MR1 (Q95460 23-302 limits assumed): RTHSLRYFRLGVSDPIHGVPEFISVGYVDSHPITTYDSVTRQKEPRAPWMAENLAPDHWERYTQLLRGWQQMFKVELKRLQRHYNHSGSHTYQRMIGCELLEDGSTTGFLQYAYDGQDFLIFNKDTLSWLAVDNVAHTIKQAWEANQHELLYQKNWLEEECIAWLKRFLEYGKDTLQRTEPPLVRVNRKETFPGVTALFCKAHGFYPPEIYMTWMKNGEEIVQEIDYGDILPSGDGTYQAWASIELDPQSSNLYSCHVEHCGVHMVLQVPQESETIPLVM
# Sequence of MR1 (P61769 21-119 partner): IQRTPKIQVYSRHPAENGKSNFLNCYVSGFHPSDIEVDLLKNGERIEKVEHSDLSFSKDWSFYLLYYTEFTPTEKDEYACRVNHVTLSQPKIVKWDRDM
SMILES,IC50 (MR1) [µM],Binder category (ligand affinity for MR1) (MR1),Upregulation of surface MR1 (C1R.MR1 cells; 3 h incubation),"Concentration at which MR1 was upregulated significantly (C1R.MR1 cells; 3 h incubation, versus DMSO) [µM]",Upregulation of surface MR1 (C1R.MR1 cells; 16 h incubation)
"COc1cc(C=O)ccc1O [Vanillin, vanillin]",325,weak (weak (IC50 > 100 μM)),upregulated,10,modest increase
"O=C(O)Cc1ccccc1Nc1c(Cl)cccc1Cl [DCF, diclofenac]",2600,,,,
"O=Cc1cccc(C(=O)O)c1O [3-F-SA, 3-formylsalicylic acid]",0.563,,,,
"O=C(O)CCNC(=O)c1cc(=O)[nH]c(=O)[nH]1 [DB28, 3-[(2,6-dioxo-1,2,3,6-tetrahydropyrimidin-4-yl)formamido]propanoic acid]",20,,,,
"CCOc1cc(C=O)ccc1O [Ethylvanillin, ethylvanillin]",325,,upregulated,,no noticeable upregulation
"COc1ccc(O)c(C=O)c1 [HMB, 2-hydroxy-5-methoxybenzaldehyde]",775,weak (weak (IC50 > 100 μM)),,,
